We go through 14 compounds from PubChem BioAssay (NCI).

What all share (experiment): NCI-60 cell line screen, 48 h
Assay [1] concerns DU-145 prostate.
For assay [2], the system named is HOP-62 NSCLC.
In assay [3] the test system is NCI-H460 lung.
In assay [4] the test system is OVCAR-8 ovarian.
In assay [5] the test system is SF-268 CNS.
Assay [6] deals with SK-MEL-5 melanoma.
The subject of assay [7] is SK-OV-3 ovarian.
Assay [8] concerns SNB-75 CNS.
The test system of assay [9] is U251 CNS.
Assay [10] relates to UO-31 renal.

Each structure is given as a SMILES string.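 Tested at 5 concentrations; 48 h exposure; 96-well plates; endpoints linearly interpolated, else capped at highest concentration. TGI: total growth inhibition.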

Consider `COc1cccc(C23CCCC(C2)NCC3Br)c1OC` (stereo not given), for which the TGI in assay [1] was over 100 µM; in assay [2] it was over 100 µM; in [3], over 100 µM; in assay [4] it was over 100 µM; in [5] it was over 100 µM; in assay [6], 13.1 µM. Besides, the TGI in assay [7], in assay [8], in assay [9] and in assay [10] was over 100 µM in each case.
As for `Clc1cc2nn(C3CCCCO3)nc2cc1Cl` (stereo not given), the TGI in assay [1], in [2], in assay [3], in [4], in assay [6] and in assay [7] was over 100 µM each time. Besides, the TGI in assay [8], in assay [9] and in assay [10] was over 100 µM each time.
With `O=P1(c2ccccc2)c2ccccc2-c2ccccc21`, the TGI in [1], in assay [2], in assay [4], in assay [5], in assay [6] and in [7] was over 100 µM in each case. Besides, the TGI in assay [8] and in assay [10] was over 100 µM throughout.
Regarding `CCOC(=O)c1cc(-n2nnc3ccccc32)cn1C`, the TGI in assay [1], in [2], in [3], in [4], in [5] and in [6] was over 10 µM throughout. The TGI in [7], in assay [8], in [9] and in assay [10] was over 10 µM in each case.
On to `CN(CC(=O)O)c1ncc2c(n1)C=CCC2`, for which the TGI in assay [1], in assay [2], in [3], in assay [4], in assay [5] and in assay [6] was over 100 µM in each case. Further, the TGI in assay [7], in assay [8], in assay [9] and in [10] was over 100 µM each time.
For the compound `O=C1CSC(c2c[nH]c3ccccc23)N1c1ccc(Cl)cc1` (stereo not given), the TGI in assay [1], in [2], in [3], in [4], in assay [5] and in assay [6] was over 100 µM in each case. Moreover, the TGI in assay [7], in assay [8], in assay [9] and in assay [10] was over 100 µM each time.
For the compound `CCOC(=O)/C=C(\C(=O)OCC)n1ccc(=O)n(Cc2cnnn2CCCCOC(C)=O)c1=O`, the TGI in assay [1] turned out to be 36.1 µM; in assay [2], 41.9 µM; in assay [3], 26 µM; in assay [4], 13.9 µM; in assay [5] it was 34.1 µM; in assay [6], 30.2 µM. The TGI in assay [7] was over 75.7 µM; in assay [8] it was 31.5 µM; in assay [9], over 59.3 µM; in assay [10], 36.5 µM.
With `c1cc(-c2ccc(-c3ccc(-c4ccc(-c5ccncc5)o4)cc3)o2)ccn1`, the TGI in [1] came out at 28.2 µM; in assay [2], 55.3 µM; in assay [3], 35.3 µM; in assay [4], 33.5 µM; in assay [5] it was 38.1 µM; in assay [6], 26 µM. Besides, the TGI came out at 45.2 µM in assay [7], 36.6 µM in assay [8], 35.3 µM in [9] and 38 µM in [10].
With `CCCNC(=S)N/N=C(\C)c1ccc(S(=O)(=O)N(C)c2ccccc2)cc1`, the TGI was over 100 µM in [1]; 29 µM in assay [2]; over 100 µM in [3]; over 100 µM in [4]; 41.8 µM in assay [5]; over 100 µM in assay [6]. In addition, the TGI in [7] was 97 µM; in [8], over 58.4 µM; in [9] it was over 78 µM; in [10], over 100 µM.
As to `COC(=O)C1CCC(=O)N1C(c1cc(OC)c(OC)c(OC)c1)c1cc(OC)c(OC)c(OC)c1` (stereo not given), the TGI in [1], in assay [2], in assay [3], in [4], in assay [5] and in assay [7] was over 100 µM each time. For the same compound, the TGI in assay [8], in assay [9] and in assay [10] was over 100 µM throughout.
For `COc1cccc(/C=N/NC(=O)CSCC(=O)N/N=C/c2cccc(OC)c2OC)c1OC`, the TGI in assay [1], in assay [2], in [3], in [4], in [5] and in [6] was over 100 µM in each case. Further, the TGI in [7], in assay [8], in assay [9] and in assay [10] was over 100 µM in each case.
For `COc1ccc(/C(C)=N/NC(=O)c2ccncc2)c(OC)c1`, the TGI in [1], in [2], in assay [3], in assay [4], in assay [5] and in assay [6] was over 10 µM in each case. Also, the TGI in assay [7], in assay [8], in [9] and in [10] was over 10 µM throughout.
For the compound `Cc1ccc(C(=O)Nc2ccc(CP(=O)(O)O)cc2)cc1NC(=O)c1cccc(N)c1`, the TGI in [1], in assay [2], in assay [4], in assay [5], in assay [6] and in assay [7] was over 100 µM in each case. The TGI in assay [8], in [9] and in [10] was over 100 µM in each case.
As for `O=[N+]([O-])C(/C=C(\Cl)[N+](=O)[O-])=C1Nc2ccccc2N1`, the TGI in assay [1], in assay [2], in assay [3], in assay [4], in [5] and in assay [6] was over 100 µM each time. Moreover, the TGI in [7], in [8], in assay [9] and in assay [10] was over 100 µM throughout.
